In patent US6399570B1, “Antimicrobial/endotoxin neutralizing polypeptide” (priority 1999, dated 2002):

Key:
[1] = test system: lipid A from E. coli 0113; test: LAL assay, neutralization of lipid A endotoxin activity (FIG. 6); format: biochemical; details: lipid A 30 ng/ml
Procedure: The lipid A region of the LPS molecule is primarily responsible for the inflammatory and toxic effects of LPS. When LPS is released from the microbe, the lipid A portion may become more accessible. The following assays were performed to determine the potential of various amino-terminal LF polypeptides to neutralize the endotoxic activity of the lipid A portion of LPS. LF, the 6 kDa fragment of LF, LF-33, LF-27, and polymyxin B were each tested for the ability to neutralize the endotoxin activity of lipid A from E. coli 0113 (30 ng/ml), using a LAL assay. […] The endotoxin activity of the smaller fragments of LF indicate that endotoxin-neutralizing activity of these small polypeptides is masked when in the context of the intact LF molecule.

E. coli 0111 [2] = test: Potentiation of Rifampicin by LF polypeptides; details: 5 μM polypeptide + 0.9 μg/ml rifampicin, 6 hr
E. coli 0111 [3] = test: Antimicrobial assay for LF polypeptides (CFU after 6 h); format: cell-based
Procedure: The antimicrobial activity of the catheptic polypeptide was measured against a clinical isolate, E. coli 0111. […] The 6 kDa catheptic fragment of LF is therefore at least as potent as twelve other natural antimicrobial polypeptides (H. G. Boman, J. Marsh, and J. A. Goode, Eds., Antimicrobial Peptides, (John Wiley & Sons Ltd., New York, N.Y., 1994)), and can function as a bactericidal agent. […] At 100 μM polypeptide, the number of viable bacteria was more than 1,000-fold greater in the cultures treated with the pepsinolytic versus cathepsinolytic fragment (FIG. 1). The basis for this difference in potency may be related to the additional, internal, pepsin cleavages which occur between the two disulfide bridges in the 6 kDa domain (Mann et al., J. Biol. Chem. 269: 23661-7 (1994); Bellamy et al., Biochim. Biophys. Acta 1121: 130-6 (1992)).
Antimicrobial assay for LF polypeptides. Cultures of E. coli 0111 (American Type Culture Collection #43887) were grown at 37° C. in 1% bactopeptone (BP) (Difco) in Dulbecco's phosphate buffered saline (dPBS) (Mediatech) with aeration by shaking (225 rpm). overnight cultures were diluted 8,000-fold in 2×concentrated BP/dPBS and mixed with an equal volume of sterile endotoxin-free distilled water containing serial dilutions of the polypeptide to be tested. The final assay volume was […] in a 12 mm×75 mm polypropylene tube (Falcon) with an ultimate dilution of the overnight cultures of 1:16,000 to yield an original inoculum of ˜1-2×10^4 CFU/ml. The final assay medium was physiological in ionic strength, 1% bactopeptone in 1×Dulbecco's phosphate buffered saline. Cultures were grown for 6 h at 37° C. with aeration as above and then cell density determined by measuring CFU/ml for each assay culture tube. Serial dilutions of each assay tube were plated on Luria Broth bactoagar and incubated for 24 h at 37° C. prior to counting colonies. All assays were done in triplicate and the standard deviation calculated for each concentration of inhibitor. Culture density at the beginning and end of the 6 h growth period was also determined from triplicate cultures lacking any polypeptide inhibitors. Untreated cultures typically grew to 1-2×10^8 CFU/ml in 6 h under these assay conditions.

N. min. LPS = test: Limulus ELISA, ENC50 against N. min. LPS; format: biochemical, Neisseria meningitidis; details: endotoxin 200 EU/ml; mean +/− SD
Procedure: (§1) The peptide-mediated inhibition of endotoxin-induced Limulus amebocyte lysate (LAL) coagulation was measured with a sensitive LAL assay (Zhang et al., J. Clin. Microbiol. 32: 416-422 (1994)). Limulus ELISA is an endotoxin assay based on activation of the LAL coagulation by endotoxin and detection of the generated peptide-C immunoreactivity with an ELISA using a monoclonal antibody to the polypeptide. Endotoxin was defined to be neutralized when it lost its ability to activate the LAL enzymes. The 50% endotoxin-neutralizing concentration (ENC50) reflects the potency of an anti-endotoxin agent; a low ENC50 indicates high potency. Table 2 lists the determined ENC50 value of each anti-endotoxin agent against lipid A and four different types of LPS. The potency of each anti-endotoxin agent varied depending on the type of endotoxin. […] The only difference between the sequence of LF-33 and LF-27 is that LF-27 lacks the first six residues (GRRRRS) at the N-terminus of LF-33. Remarkably, this deletion led to dramatic loss of the endotoxin-neutralizing capacity of the polypeptide in this assay. Binding of serum proteins to endotoxin neutralizes the endotoxin activity in this assay by preventing endotoxin from activating LAL (Emancipator et al., Infect. Immun. 60: 596-601 (1992)).
(§2) LPS. […] LPS (purity >99%) from Neisseria meningitidis was prepared from the group B strain #6275 and its potency was 25 EU/ng. […] The potency of the above endotoxin was determined with the Limulus enzyme-linked immunosorbent assay (ELISA, 43) in comparison with US Pharmacopeia reference standard endotoxin EC-5.
(§3) Briefly, 25 μl endotoxin solution (200 EU/ml) was mixed with an equal volume of test materials in a series of two-fold dilution in 0.15 M NaCl in a sterile 96-well tissue culture plate (Nunc A/S, Roskilde, Denmark), and incubated at 37° C. for 1 h in a dry-air incubator. […] The endotoxin activity was then quantified with the use of Limulus ELISA (Zhang et al., J. Clin. Microbiol. 32: 416-422 (1994)). […] The high sensitivity of the assay allowed for very low levels of the endotoxin activity to be detected. […]

E. coli LPS = test: Limulus ELISA, ENC50 against E. coli LPS; format: biochemical, Escherichia coli O113:H10
Procedure: as §1, §2, §3

P. aer. LPS = test: Limulus ELISA, ENC50 against P. aer. LPS; format: biochemical, Pseudomonas aeruginosa; details: endotoxin 200 EU/ml; mean +/− SD
Procedure: as §1, §2, §3

Compound | lipid A neutralizing activity [1] | effect on the antimicrobial activity of rifampicin (viable bacteria) (E. coli 0111 [2]) | reduction in cell growth (E. coli 0111 [3]; 100 μM polypeptide) | number of viable CFUs (E. coli 0111 [3]; 100 μM polypeptide, original inoculum 2.14×10^4 CFU/ml) | minimum inhibitory concentration (MIC) (E. coli 0111 [3]; E. coli 0111, physiological ionic strength, 6 h, CFU) [µM] | potency against bacteria relative to the fragment liberated by pepsin (E. coli 0111 [3]; from MICs) [fold] | ENC50 against N. min. LPS (N. min. LPS) | IC50 (N. min. LPS) [µM] | fold less potent than LF-33 at neutralizing E. coli LPS (E. coli LPS) | IC50 (E. coli LPS; endotoxin 200 EU/ml, mean +/− SD) [µM] | ENC50 against P. aer. LPS (P. aer. LPS) | IC50 (P. aer. LPS) [µM]
6 kDa polypeptide: 6 kDa fragment produced by cathepsin D digestion of human LF, amino acids 1-49 of SEQ ID NO: 2 (GRRRRSVQWCAVSQPEATKCFQWQRNMRKVRGPPVSCIKRDSPIQCIQA; listed as Homo sapiens) | neutralized lipid A | more than three orders of magnitude | greater than 10,000 fold | 8.8×10^3 CFU/ml | 1 to 5 | ~10 | – | – | – | – | – | –
CSCC[C@H](NC(=O)[C@H](CC(N)=O)NC(=O)[C@H](CCCNC(=N)N)NC(=O)[C@H](CCC(N)=O)NC(=O)[C@H](Cc1c[nH]c2ccccc12)NC(=O)[C@H](CCC(N)=O)NC(=O)[C@H](Cc1ccccc1)NC(=O)[C@H](CS)NC(=O)[C@H](CCCCN)NC(=O)[C@@H](NC(=O)[C@H](C)NC(=O)[C@H](CCC(=O)O)NC(=O)[C@@H]1CCCN1C(=O)[C@H](CCC(N)=O)NC(=O)[C@H](CO)NC(=O)[C@@H](NC(=O)[C@H](C)NC(=O)[C@H](CS)NC(=O)[C@H](Cc1c[nH]c2ccccc12)NC(=O)[C@H](CCC(N)=O)NC(=O)[C@@H](N)C(C)C)C(C)C)[C@@H](C)O)C(=O)N[C@@H](CCCNC(=N)N)C(=O)N[C@@H](CCCCN)C(=O)N[C@H](C(=O)N[C@@H](CCCNC(=N)N)C(=O)NCC(=O)N1CCC[C@H]1C(=O)O)C(C)C [LF-27] | neutralized lipid A | no significant effect | – | – | – | – | no detectable activity | > 300 | approximately 10 fold | 7.45 | no detectable activity | > 300
